This note sets out measurements from patent publication US12441754B2, “Galactoside inhibitor of galectins” (GALECTO BIOTECH AB, priority 2019, dated 2025).

Usually Kd stands for the concentration at which binding is half-saturated.

Structures are written as SMILES. Read-outs that look alike come from different tables or passages of the source.

Experiment [1] deals with Galectin-1 (Homo sapiens, UniProt P09382). Description: fluorescence anisotropy assay, compound as inhibitor of galectin / fluorescein tagged saccharide probe interaction. The format is binding. The text has this: (§1) Anal. Biochem. 334: 36-47, (Sörme et al., 2004) and Monovalent interactions of Galectin-1 By Salomonsson, Emma; Larumbe, Amaia; Tejler, Johan; Tullberg, Erik; Rydberg, Hanna; Sundin, Anders; Khabut, Areej; Frejd, Torbjorn; Lobsanov, Yuri D.; Rini, James M.; et al, From Biochemistry (2010), 49(44), 9518-9532, (Salomonsson et al., 2010).
Chain of Galectin-1 (P09382 whole entry): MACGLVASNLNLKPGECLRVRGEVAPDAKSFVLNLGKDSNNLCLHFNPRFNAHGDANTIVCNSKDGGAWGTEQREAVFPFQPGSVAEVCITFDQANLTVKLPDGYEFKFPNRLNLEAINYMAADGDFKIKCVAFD

Experiment [2] has as its target Galectin-3 (Homo sapiens, UniProt P17931). Described as above. The class given is binding.
Description: as §1

Chain of Galectin-3 (P17931 whole entry): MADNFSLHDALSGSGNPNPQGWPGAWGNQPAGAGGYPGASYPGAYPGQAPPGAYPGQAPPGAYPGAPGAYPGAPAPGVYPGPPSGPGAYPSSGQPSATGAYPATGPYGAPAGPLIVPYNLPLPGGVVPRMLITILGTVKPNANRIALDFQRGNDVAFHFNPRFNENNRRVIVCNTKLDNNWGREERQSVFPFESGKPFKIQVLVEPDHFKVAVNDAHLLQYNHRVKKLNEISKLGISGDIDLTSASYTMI

Turning to `CO[C@@H]1[C@@H](n2cc(-c3nccs3)nn2)[C@@H](O)[C@@H](CO)O[C@@H]1Sc1cncc(Br)c1` [Example 2, 5-Bromopyridin-3-yl 3-deoxy-2-O-methyl-3-[4-(2-thiazolyl)-1H-1,2,3-triazol-1-yl]-1-thio-α-D-galactopyranoside], the equilibrium dissociation constant (Kd) in experiment [1] was 230 nM; in experiment [2], 3000 nM.
With `CO[C@@H]1[C@@H](n2cc(-c3nccs3)nn2)[C@@H](O)[C@@H](CO)O[C@@H]1Sc1cc(Br)cnc1C#N` [Example 3, 5-Bromo-2-cyanopyridin-3-yl 3-deoxy-2-O-methyl-3-[4-(2-thiazolyl)-1H-1,2,3-triazol-1-yl]-1-thio-α-D-galactopyranoside], the equilibrium dissociation constant (Kd) in experiment [1] amounted to 110 nM; in experiment [2], 1100 nM.
In the case of `CO[C@@H]1[C@@H](n2cc(-c3nccs3)nn2)[C@@H](O)[C@@H](CO)O[C@@H]1Sc1cc(Cl)cnc1C#N` [Example 4, 5-Chloro-2-cyanopyridin-3-yl 3-deoxy-2-O-methyl-3-[4-(2-thiazolyl)-1H-1,2,3-triazol-1-yl]-1-thio-α-D-galactopyranoside], the values for the dissociation constant Kd in experiment [1] and in experiment [2] were 110 nM and 1200 nM, respectively.
Take `N#Cc1ncc(Cl)cc1S[C@H]1O[C@H](CO)[C@H](O)[C@H](n2cc(-c3nccs3)nn2)[C@H]1OCc1ccccc1` [Example 5, 5-Chloro-2-cyanopyridin-3-yl 2-O-benzyl-3-deoxy-3-[4-(2-thiazolyl)-1H-1,2,3-triazol-1-yl]-1-thio-α-D-galactopyranoside]: the Kd in experiment [1] worked out at 190 nM; in experiment [2] it was 1800 nM.
Take `N#Cc1ncc(Cl)cc1S[C@H]1O[C@H](CO)[C@H](O)[C@H](n2cc(-c3nccs3)nn2)[C@H]1OCc1cc(F)c(O)c(F)c1` [Example 6, 5-Chloro-2-cyanopyridin-3-yl 3-deoxy-2-O-(3,5-difluoro-4-hydroxybenzyl)-3-[4-(2-thiazolyl)-1H-1,2,3-triazol-1-yl]-1-thio-α-D-galactopyranoside]: the Kd came to 96 nM in experiment [1] and 950 nM in experiment [2].
As for `CO[C@@H]1[C@@H](n2cc(-c3csc(O)n3)nn2)[C@@H](O)[C@@H](CO)O[C@@H]1Sc1cc(Cl)c(F)c(Cl)c1` [Example 7, 3,5-Dichloro-4-fluorophenyl 3-deoxy-3-[4-(2-hydroxythiazol-4-yl)-1H-1,2,3-triazol-1-yl]-2-O-methyl-1-thio-α-D-galactopyranoside], the Kd in experiment [1] (read-out: Galectin-1 Kd) came out at 29 nM; in experiment [2] it was 2600 nM.
Turning to `CC(C)O[C@@H]1[C@@H](n2cc(-c3csc(O)n3)nn2)[C@@H](O)[C@@H](CO)O[C@@H]1Sc1ccc(Cl)c(Cl)c1` [Example 8, 3,4-Dichlorophenyl 3-deoxy-3-[4-(2-hydroxythiazol-4-yl)-1H-1,2,3-triazol-1-yl]-2-O-isopropyl-1-thio-α-D-galactopyranoside], the Kd in experiment [1] is 100 nM; in experiment [2] it was greater than 100000 nM.
As for `CO[C@@H]1[C@@H](n2cc(-c3csc(O)n3)nn2)[C@@H](O)[C@@H](CO)O[C@@H]1Sc1ccc(Cl)c(Cl)c1` [Example 9, 3,4-Dichlorophenyl 3-deoxy-3-[4-(2-hydroxythiazol-4-yl)-1H-1,2,3-triazol-1-yl]-2-O-methyl-1-thio-α-D-galactopyranoside], the Kd in experiment [1] (read-out: Galectin-1 Kd) was 41 nM; in experiment [2] it was 4600 nM.
In the case of `OC[C@H]1O[C@H](Sc2ccc(Cl)c(Cl)c2)C[C@@H](n2cc(-c3csc(O)n3)nn2)[C@H]1O` [Example 10, 3,4-Dichlorophenyl 2,3-dideoxy-3-[4-(2-hydroxythiazol-4-yl)-1H-1,2,3-triazol-1-yl]-1-thio-α-D-galactopyranoside], the figures for the Kd in experiment [1] and in experiment [2] were 82 nM and 5300 nM, respectively.
On to `CO[C@@H]1[C@@H](n2cc(-c3nc(Cl)cs3)nn2)[C@@H](O)[C@@H](CO)O[C@@H]1Sc1cc(Br)cnc1C#N` [Example 11, 5-Bromo-2-cyanopyridin-3-yl 3-[4-(4-chlorothiazol-2-yl)-1H-1,2,3-triazol-1-yl]-3-deoxy-2-O-methyl-1-thio-α-D-galactopyranoside], for which the dissociation constant (Kd) came out at 19 nM in experiment [1] and 170 nM in experiment [2].
Turning to `CO[C@@H]1[C@@H](n2cc(-c3nc(Cl)cs3)nn2)[C@@H](O)[C@@H](CO)O[C@@H]1Sc1cnc(C#N)c(Br)c1` [Example 12, 3-Bromo-2-cyanopyridin-5-yl 3-[4-(4-chlorothiazol-2-yl)-1H-1,2,3-triazol-1-yl]-3-deoxy-2-O-methyl-1-thio-α-D-galactopyranoside], the Kd in experiment [1] is 24 nM; in experiment [2] it was 270 nM.
On the same counts, the results for `CO[C@@H]1[C@@H](n2cc(-c3nc(Cl)cs3)nn2)[C@@H](O)[C@@H](CO)O[C@@H]1Sc1cc(Cl)cnc1C#N` [Example 13, 5-Chloro-2-cyanopyridin-3-yl 3-[4-(4-chlorothiazol-2-yl)-1H-1,2,3-triazol-1-yl]-3-deoxy-2-O-methyl-1-thio-α-D-galactopyranoside] are 25 nM and 160 nM.
On the same counts, the results for `CO[C@@H]1[C@@H](n2cc(-c3nc(Cl)cs3)nn2)[C@@H](O)[C@@H](CO)O[C@@H]1Sc1cnc(C#N)c(Cl)c1` [Example 14, 3-Chloro-2-cyanopyridin-5-yl 3-[4-(4-chlorothiazol-2-yl)-1H-1,2,3-triazol-1-yl]-3-deoxy-2-O-methyl-1-thio-α-D-galactopyranoside] are 30 nM and 370 nM.
On the same counts, the results for `CO[C@@H]1[C@@H](n2cc(-c3csc(Cl)n3)nn2)[C@@H](O)[C@@H](CO)O[C@@H]1Sc1cc(Cl)cnc1C#N` [Example 15, 5-Chloro-2-cyanopyridin-3-yl 3-[4-(2-chlorothiazol-4-yl)-1H-1,2,3-triazol-1-yl]-3-deoxy-2-O-methyl-1-thio-α-D-galactopyranoside] are 56 nM and 200 nM.
As for `CO[C@@H]1[C@@H](n2cc(-c3csc(N)n3)nn2)[C@@H](O)[C@@H](CO)O[C@@H]1Sc1cc(Cl)c(F)c(Cl)c1` [Example 16, 3,5-Dichloro-4-fluorophenyl 3-[4-(2-aminothiazol-4-yl)-1H-1,2,3-triazol-1-yl]-3-deoxy-2-O-methyl-1-thio-α-D-galactopyranoside], the equilibrium dissociation constant (Kd) was 69 nM in experiment [1] (read-out: Galectin-1 Kd) and 8400 nM in experiment [2].
On to `CO[C@@H]1[C@@H](n2cc(-c3csc(N)n3)nn2)[C@@H](O)[C@@H](CO)O[C@@H]1Sc1cc(Cl)cnc1C#N` [Example 17, 5-Chloro-2-cyanopyridin-3-yl 3-[4-(2-aminothiazol-4-yl)-1H-1,2,3-triazol-1-yl]-3-deoxy-2-O-methyl-1-thio-α-D-galactopyranoside], for which the Kd worked out at 33 nM in experiment [1] and 1900 nM in experiment [2].
On the same counts, the results for `CO[C@@H]1[C@@H](n2cc(-c3csc(N)n3)nn2)[C@@H](O)[C@@H](CO)O[C@@H]1Sc1cc(Cl)cnc1C` [Example 18, 5-Chloro-2-methylpyridin-3-yl 3-[4-(2-aminothiazol-4-yl)-1H-1,2,3-triazol-1-yl]-3-deoxy-2-O-methyl-1-thio-α-D-galactopyranoside] are 120 nM and 5400 nM.
In the case of `N#Cc1ncc(Cl)cc1S[C@H]1O[C@H](CO)[C@H](O)[C@H](n2cc(-c3csc(N)n3)nn2)[C@H]1OCc1ccccc1` [Example 19, 5-Chloro-2-cyanopyridin-3-yl 3-[4-(2-aminothiazol-4-yl)-1H-1,2,3-triazol-1-yl]-2-O-benzyl-3-deoxy-1-thio-α-D-galactopyranoside], the Kd in experiment [1] amounted to 79 nM; in experiment [2] it was 1800 nM.
For the compound `CCO[C@@H]1[C@@H](n2cc(-c3csc(N)n3)nn2)[C@@H](O)[C@@H](CO)O[C@@H]1Sc1cc(Cl)cnc1C` [Example 20, 5-Chloro-2-methylpyridin-3-yl 3-[4-(2-aminothiazol-4-yl)-1H-1,2,3-triazol-1-yl]-3-deoxy-2-O-ethyl-1-thio-α-D-galactopyranoside], the figures for the Kd in experiment [1] and in experiment [2] were 67 nM and 6200 nM, respectively.
`CO[C@@H]1[C@@H](n2cc(-c3csc(N)n3)nn2)[C@@H](O)[C@@H](CO)O[C@@H]1Sc1cc(Cl)cnc1-c1cncnc1` [Example 21, 5-Chloro-2-(pyrimidin-5-yl)pyridin-3-yl 3-[4-(2-aminothiazol-4-yl)-1H-1,2,3-triazol-1-yl]-3-deoxy-2-O-methyl-1-thio-α-D-galactopyranoside]: the dissociation constant (Kd) is 45 nM in experiment [1] and 2300 nM in experiment [2].
On the same counts, the results for `CO[C@@H]1[C@@H](n2cc(-c3csc(N)n3)nn2)[C@@H](O)[C@@H](CO)O[C@@H]1Sc1cc(Cl)cnc1-c1ccncc1` [Example 22, 5-Chloro-2-(pyridin-4-yl)pyridin-3-yl 3-[4-(2-aminothiazol-4-yl)-1H-1,2,3-triazol-1-yl]-3-deoxy-2-O-methyl-1-thio-α-D-galactopyranoside] are 26 nM and 4100 nM.
Turning to `CO[C@@H]1[C@@H](n2cc(-c3csc(N)n3)nn2)[C@@H](O)[C@@H](CO)O[C@@H]1Sc1cc(Cl)cnc1-c1cccnc1` [Example 23, 5-Chloro-2-(pyridin-3-yl)pyridin-3-yl 3-[4-(2-aminothiazol-4-yl)-1H-1,2,3-triazol-1-yl]-3-deoxy-2-O-methyl-1-thio-α-D-galactopyranoside], the Kd in experiment [1] came to 30 nM; in experiment [2] it was 4200 nM.
Consider `CO[C@@H]1[C@@H](n2cc(-c3csc(N)n3)nn2)[C@@H](O)[C@@H](CO)O[C@@H]1Sc1cc(Cl)cnc1C1=CCNCC1` [Example 24, 5-Chloro-2-(1,2,3,6-tetrahydropyridin-4-yl)pyridin-3-yl 3-[4-(2-aminothiazol-4-yl)-1H-1,2,3-triazol-1-yl]-3-deoxy-2-O-methyl-1-thio-α-D-galactopyranoside], for which the results for the Kd in experiment [1] and in experiment [2] were 150 nM and 3300 nM, respectively.
For `N#Cc1ncc(Cl)cc1S[C@H]1O[C@H](CO)[C@H](O)[C@H](n2cc(-c3csc(N)n3)nn2)[C@H]1OCc1cc(F)c(O)c(F)c1` [Example 25, 5-Chloro-2-cyanopyridin-3-yl 3-[4-(2-aminothiazol-4-yl)-1H-1,2,3-triazol-1-yl]-3-deoxy-2-O-(3,5-difluoro-4-hydroxybenzyl)-1-thio-α-D-galactopyranoside], in that order: 24 nM and 740 nM.
